# Laboratory results as given in patent publication US20240309018A1, “THIAZOLE-LACTAM-SPIROHETEROCYCLIC COMPOUNDS AND APPLICATIONS THEREOF” (D3 BIO (WUXI) CO., LTD, priority 2021, published 2024).
# “Also recorded” adds a separate entry of the source.
# Key:
# HT29 tumor cells = assay: In vitro cell proliferation inhibition (CellTiterGlo); format: cell-based; details: Homo sapiens, HT-29
# Protocol: The ability of the compound to inhibit the proliferation of HT29 tumor cells was measured.
# The assay compound was dissolved in 100% DMSO to prepare 10 mM stock solution.
# • 1) UV light of a biological safety cabin was turned on, and 30 minutes were counted down; • 2) In a 37° C. water bath, RPMI1640 medium and trypsin were preheated; • 3) After completion of the UV irradiation, the biological safety cabin was opened. The preheated medium, trypsin and phosphate buffered saline (PBS), etc. were wiped with alcohol and placed in the biological safety cabin; • 4) HT29 cells were removed from the incubator, and the old medium was removed in biological safety cabin. 10 ml of PBS was added. The mixture was shaken gently, and then PBS was removed; • 5) 1.5 ml of preheated 0.25% trypsin was added. […] The signal value was then detected. The data were analyzed using XL-Fit, and the IC50 of each compound was calculated.
# In vivo PK study in mice = assay: In vivo PK study in mice; parameters: species or system mouse; details: female BALB/c mice
# Excerpt: Female BALB/c mice were used as assay animals to determine the blood concentration of the compound and evaluate the pharmacokinetic behavior after a single administration.
# Four healthy adult female BALB/c mice were selected, wherein 2 mice were in an intravenous injection group and 2 mice were in an oral group. The vehicle in the intravenous injection group was 5% DMSO+95% (20% HP-β-CD). The compound to be assayed was mixed with an appropriate amount of vehicle for intravenous injection, vortexed and sonicated to prepare a clear solution of 0.5 mg/mL. The clear solution was filtered by a microporous membrane, and then ready for use. The vehicle in the oral group was 5% DMSO+95% (20% HP-β-CD). The compound to be assayed was mixed with the vehicle, vortexed and sonicated to prepare a solution of 0.3 mg/mL. Mice were administered 1 mg/kg intravenously or 3 mg/kg orally, and then whole blood was collected for a certain period. Plasma was prepared. The drug concentration was analyzed by LC-MS/MS method, and the pharmacokinetic parameters were calculated by Phoenix WinNonlin software (Pharsight, USA).
# [1] = Body weight and tolerance in A375 model animals; format: in vivo; details: 12.5, 25 and 50 mg/kg PO BID, to the 21st day
# Protocol: • 3) Daily observation of assay animals: The development of this assay protocol and any modifications were evaluated and approved by the Institutional Animal Care and Use Committee (IACUC). The use and welfare of assay animals were carried out in accordance with the regulations of the Association for Assessment and Accreditation of Laboratory Animal Care (AAALAC). Animals were monitored daily for health and death. […] Animal deaths and side effects in each group were recorded based on the number of animals in each group. • 4) Formulation of assay compound • a) Vehicle group: 5% DMSO+95% (20% HP-β-CD). • b) Assay compound group: A quantitative amount of the assay compound was weighed in a formulation bottle. […] A corresponding volume of 20% HP-β-CD was added and then the mixture was vortexed to obtain a homogeneous suspension. • 5) Tumor measurement and assay indicator: • a) Tumor diameter was measured twice a week with a vernier caliper. The calculation formula of tumor volume was: TV=1/2×a×b^2, wherein a and b represent the long and short diameters of tumor, respectively: • b) The tumor-inhibitory efficacy of the compound was evaluated by TGI (%). […]
# [2] = In vivo PK study in beagle dogs; parameters: species or system beagle dog; details: male beagle dogs
# Protocol: Male beagle dogs were used as assay animals. After a single administration, the plasma concentration of the compound was measured and the pharmacokinetic behavior was evaluated.
# Five healthy adult male beagle dogs were selected, wherein 2 were in an intravenous injection group, and 3 were in an oral group. The vehicle in the intravenous injection group was 5% DMSO+95% (20% HP-β-CD). The compound to be assayed was mixed with an appropriate amount of vehicle for intravenous injection, and dissolved with stirring to prepare a clear solution of 0.4 mg/mL. The clear solution was filtered by a microporous membrane, and then ready for use. The vehicle in the oral group was 5% DMSO+95% (20% HP-β-CD). The compound to be assayed was mixed with the vehicle, and dissolved with stirring to prepare a solution of 0.3 mg/mL. […] were administered 1 mg/kg intravenously or 3 mg/kg orally, and then whole blood was collected for a certain period. Plasma was prepared. The drug concentration was analyzed by LC-MS/MS method, and the pharmacokinetic parameters were calculated by Phoenix WinNonlin software (Pharsight, USA).
smiles,measurement,setting,value
Cc1cccc(CN2C(=O)c3nc(-c4nc(Nc5ccnn5C)ncc4C)sc3C23COC3)n1 [WX001],IC50,HT29 tumor cells,0.066 µM
same,Oral DNAUC,"In vivo PK study in mice; 3 mg/kg orally, AUCPO/Dose",2935 nM · h/mpk
same,clearance,"In vivo PK study in mice; mouse, plasma, intravenous, 1 mg/kg intravenously or 3 mg/kg orally",18.9 mL/min/kg
same,Vd,"In vivo PK study in mice; mouse, plasma, intravenous, 1 mg/kg intravenously or 3 mg/kg orally, read-out: Vdss",1.23 L/kg
same,half-life,"In vivo PK study in mice; mouse, plasma, 1 mg/kg intravenously or 3 mg/kg orally",1.1 h
same,bioavailability,"In vivo PK study in mice; mouse, plasma, 1 mg/kg intravenously, 3 mg/kg orally, oral bioavailability",154%
same,Cmax,"In vivo PK study in mice; mouse, single dose, 1 mg/kg intravenously or 3 mg/kg orally, plasma",4.79 µM
same,body weight of animals,[1],did not decrease significantly; also recorded: not observed to decrease significantly
same,tolerance,[1],good
same,clearance,"[2]; dog, plasma, intravenous, 1 mg/kg intravenously or 3 mg/kg orally",10.1 mL/min/kg
same,Vd,"[2]; dog, plasma, intravenous, 1 mg/kg intravenously or 3 mg/kg orally, read-out: Vdss",1.29 L/kg
same,half-life,"[2]; dog, plasma, 1 mg/kg intravenously or 3 mg/kg orally",3.48 h
same,bioavailability,"[2]; dog, plasma, 1 mg/kg intravenously, 3 mg/kg orally, oral bioavailability",60%
same,Cmax,"[2]; dog, single dose, 1 mg/kg intravenously or 3 mg/kg orally, plasma",1.77 µM
same,Oral DNAUC,"[2]; 3 mg/kg orally, AUCPO/Dose",2307.32 nM · h/mpk
